The values below come from publication PMC12075686, “Structural basis of phosphorylation-independent nuclear import of CIRBP by TNPO3” (Nature Communications, 2025).

Changes are numbered by the printed parent chain.

For assay [1], the target named is TNPO3. To be noted: SAXS, monomer/dimer equilibrium; read-out: dissociation constant of TNPO3 dimerization in solution; cited from earlier work. An excerpt:
We next aimed to gain insight into the structural basis for TNPO3 recognition of RSY-NLS and obtained crystals of TNPO3 C511A bound to CIRBP^RSY that diffracted X-rays to 2.94 Å resolution. This TNPO3 mutant was used for the determination of the 3D X-ray structure of the TNPO3-SRSF1 complex and increases TNPO3 stability. […] TNPO3 forms a dimer in the asymmetric unit of the crystal structure, as previously observed ... || page 9: Figure 2: Is TNPO3 a monomer in solution? In order for the reader to understand where are the additional contact points described in Sup Fig 2, a global view of the different contact points would be helpful. […] Out of the additional contact points in the crystal structure, the intermolecular salt bridge of E304 with K877 is the only contact which we could observe in both directions (chain A – chain B and vice versa). We in ...

For another assay, the target named is T1, TNPO3 WT (Homo sapiens, UniProt Q9Y5L0).
T1 sequence (Q9Y5L0 1-923): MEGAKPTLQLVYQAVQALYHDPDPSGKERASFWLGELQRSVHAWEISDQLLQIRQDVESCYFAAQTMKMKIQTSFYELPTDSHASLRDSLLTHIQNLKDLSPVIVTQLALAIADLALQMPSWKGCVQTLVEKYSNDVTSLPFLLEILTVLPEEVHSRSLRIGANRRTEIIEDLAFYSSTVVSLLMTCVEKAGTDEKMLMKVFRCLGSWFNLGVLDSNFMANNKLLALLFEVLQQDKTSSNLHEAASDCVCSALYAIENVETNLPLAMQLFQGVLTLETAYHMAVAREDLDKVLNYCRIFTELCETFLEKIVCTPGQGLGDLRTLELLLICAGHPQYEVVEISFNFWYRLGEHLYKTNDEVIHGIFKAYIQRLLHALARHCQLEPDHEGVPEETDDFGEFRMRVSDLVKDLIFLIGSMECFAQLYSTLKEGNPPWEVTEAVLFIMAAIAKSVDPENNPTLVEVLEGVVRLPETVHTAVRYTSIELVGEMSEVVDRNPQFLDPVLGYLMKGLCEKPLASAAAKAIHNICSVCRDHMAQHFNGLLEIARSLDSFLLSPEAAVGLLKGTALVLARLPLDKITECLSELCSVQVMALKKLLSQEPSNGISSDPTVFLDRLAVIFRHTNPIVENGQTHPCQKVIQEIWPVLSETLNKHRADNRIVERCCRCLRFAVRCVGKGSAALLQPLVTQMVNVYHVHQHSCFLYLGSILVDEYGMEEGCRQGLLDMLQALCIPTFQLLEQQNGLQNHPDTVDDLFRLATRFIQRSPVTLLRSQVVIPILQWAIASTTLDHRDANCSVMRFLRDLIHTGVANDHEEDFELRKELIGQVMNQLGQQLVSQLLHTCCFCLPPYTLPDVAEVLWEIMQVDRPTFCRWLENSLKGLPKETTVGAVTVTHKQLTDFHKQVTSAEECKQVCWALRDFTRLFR
The experiment in a line: ITC, ligand titrated into TNPO3 WT. In kind it is binding. To be noted: ITC, TNPO3 WT. The method, then: (§1) ITC has been performed by a Malvern Microcal VP-ITC at 25 °C for all binding studies. Samples have been dissolved in Tris buffer containing 50 mM Tris–HCl, 150 mM NaCl, 2 mM TCEP, and 0.04% NaN3 at pH 7.5. Binding studies of CIRBP^RSY and SRSF1^RS were performed with TNPO3 WT, and studies of CIRBP (157–172) and its mutants/phosphorylations were performed with TNPO3 C511A, respectively. Injection has been carried out by a syringe containing ligand solution of 100 μM, which adds ligand step-wise into the cell containing 10 μM TNPO3 during 28 injections of 10 μL each. Data analysis, curve fitting, and calculation of Kd, ΔH, and ΔS have been carried out using Origin-based 7.0 software provided by the manufacturer. All replicated ITC data are shown in Supplementary Fig. 6 and Supplementary Table 1.
For orientation: Isothermal titration calorimetry measures the heat released or taken up as one component is titrated into another.

The target of another assay is T2, TNPO3 C511A (Homo sapiens, UniProt Q9Y5L0, C511A).
T2 construct: full-length (FL) WT human TNPO3 were generated by synthesizing codon-optimized DNA fragments; His6 (N, cleaved yes); protein A (N, cleaved yes); made in house; host or cells: Escherichia coli BL21-(DE3) Star
T2 sequence (Q9Y5L0 1-923 C511A): T1 sequence (Q9Y5L0 1-923) with C511A
The experiment in a line: ITC, ligand titrated into TNPO3 C511A. In kind it is binding. To be noted: TNPO3 C511A. How it is done:
as §1

Assay [2] deals with TNPO3. The experiment in a line: NMR binding studies with TNPO3 (1H-15N HSQC, 1H-13C HMQC, 1H 1D, STD). On the set-up: species or system human. The method, then: All NMR studies for TNPO3 were carried out using the wild type protein. Protein samples for ^1H-^13C HMQC were prepared at a concentration of 100 μM and equilibrated in a buffer containing 50 mM Tris–HCl, pH 6.7, 150 mM NaCl, 2 mM TCEP and 10% D2O. Spectral acquisitions for TNPO3 free and in complex with CIRBP^RSY and SRSF1^RS, respectively were performed at 298 K on a 700 MHz Bruker Avance III NMR spectrometer equipped with a TCI triple-resonance cryoprobe. The pulse program was sfhmqcf2gpph and the spectra were recorded with 32 scans, interscan delay of 1 s, 160 points in F1, 1024 points in F2, 5283.879 Hz spectral width in F1, and 11,160.714 Hz spectral width in F2. Spectra were processed using Topspin 4.1.3.
Spectral acquisitions for TNPO3 free and in complex with mCIRBP^RSY, pCIRBP^RSY, and pSRSF1^RS, respectively, were performed at 298 K on a 600 MHz Bruker Avance Neo NMR spectrometer equipped with a TXI 600S3 probehead. The pulse program was hmqcgpphwg and the spectra were recorded with 64 scans, interscan delay of 1 s, 200 points in F1, 1024 points in F2, 4545.455 Hz spectral width in F1, and 7812.500 Hz spectral width in F2. Spectra were processed using Topspin 4.3.0.
For ^1H-^15N HSQC spectra, protein samples were equilibrated in a buffer containing 50 mM Tris–HCl, pH 6.7, 150 mM NaCl, 2 mM TCEP, 0.04% NaN3, and 10% D2O (with additional 20 mM MgCl2 for CIRBP phosphorylation kinetics). Data were recorded at 298 K on the 600 MHz Bruker Avance Neo NMR spectrometer equipped with a TXI 600S3 probehead. The pulse program was hsqcetfpf3gpsi and was recorded with 8-16 scans, interscan delay of 1 s, 128 points in F1, 1024 points in F2, 1949.318 Hz spectral width in F1, and 9615.385 Hz spectral width in F2. Spectra were processed using Topspin 4.3.0.

In a further assay the test system is transportin-1 (TNPO1). To be noted: cited from earlier work. An excerpt:
CIRBP, a nuclear protein known for its role in regulating mRNA stability and DNA repair, translocates from the nucleus to the cytoplasm under stress condition, forming stress granules[31],[32]. It is a typical RNA-binding pro ... || page 4: REVIEWER COMMENTS Comments are highlighted with a green background Reviewer #1 (Remarks to the Author) TNPO3 is an important karyopherin involved in some human pathologies and HIV-1 infection. Its best characterized biological function is in nuclear import of SR and SR-like repeat containing proteins, such as SFRS1 and CPSF6. […] Intriguingly, TNPO3 engages these alternative NLSs via the same region, which it ...

For assay [3], the target named is T3, Transportin 3 (TNPO3), full-length wild type (human, UniProt Q9Y5L0 1-923).
T3 chain: T1 sequence (Q9Y5L0 1-923)
The experiment in a line: ITC.

In assay [4] the target is T3, Transportin 3 (TNPO3), full-length wild …. The experiment in a line: ITC; rep2.
The target in assay [5] is T4, Transportin 3 (TNPO3), full-length wild type (human, UniProt Q9Y5L0 1-923).
T4 construct: Transportin 3 (TNPO3), human, full-length wild type; For the NMR experiments made 15N-labelled with 13C-methyl labelling of isoleucine and methionine side chains ([IM-methyl 13C]); Vector pETM11-His6-protein A with a TEV site downstream of the protein A tag; also called TNPO3 WT; TNPO3 FL WT; source: E. coli BL21-(DE3) Star, purified (Ni-NTA, TEV cleavage, second Ni-NTA, SEC Superdex 200); not …
T4 sequence (looked up): T1 sequence (Q9Y5L0 1-923)
The experiment in a line: ITC; 100 µM ligand in the syringe injected (28 x 10 µL) into 10 µM TNPO3 (WT or C511A) in the cell; 25 °C; 50 mM Tris-HCl pH 7.5, 150 mM NaCl, 2 mM TCEP, 0.04% NaN3. To be noted: both partners purified.

For assay [6], the target named is T5, Transportin 3 (TNPO3) C511A mutant (human, UniProt Q9Y5L0 1-923, C511A).
T5 construct: Transportin 3 (TNPO3), human, C511A mutant that increases stability; Two chains in the asymmetric unit of 8CMK; source: E. coli BL21-(DE3) Star, purified (Ni-NTA, TEV cleavage, second Ni-NTA, SEC Superdex 200)
T5 sequence: T1 sequence (Q9Y5L0 1-923) with C511A
The description is as above. To be noted: both partners purified.

With “TNPO3: Transportin 3, nuclear import receptor; here its own monomer/dimer equilibrium”, the Kd at TNPO3 [1] is 8300 ± 1000 nM.
As to “H-GSRDYYSSRSQSGGYSDRSSGGSYRDSYDSYATHNE-OH [CIRBP^RSY]”, the ΔS result at TNPO3 WT (replicate 1 (rep1)) is given as “–101 cal/mol/deg”; at TNPO3 WT (replicate 2 (rep2)) it was “–192 cal/mol/deg”; at TNPO3 C511A (rep1, reference for alanine mutation), “–124 cal/mol/deg”; at TNPO3 C511A (rep2, reference for alanine mutation) it was “–242 cal/mol/deg”. The “change of peptide 1H 1D NMR signals with sub-stoichiometric TNPO3” value with TNPO3 [2] (100 µM RSY regions and 10 µM TNPO3 (peer review reply)) is on record as “slight decrease of peptide signal intensity”. Further, the “chemical shift perturbations of TNPO3 methyl groups upon ligand addition (1H,13C HMQC)” value in the assay on TNPO3 [2] (100 µM [IM-methyl 13C] labeled TNPO3, one stoichiometric equivalent of ligand, 298 K, pH 6.7) is on record as “led to CSPs of several TNPO3 ^1H,^13C cross-peaks”. Moreover, the “fold lower binding affinity for TNPO1 than for TNPO3” value in the assay with transportin-1 (TNPO1) was “approximately 70”.

B1: RSY region of cold-inducible RNA-binding protein (CIRBP), residues 138-172 (domain or fragment, human, UniProt Q14011 138-172, looked up)
chain: SRDYYSSRSQSGGYSDRSSGGSYRDSYDSYATHNE
notes: Only residues 158-171 were modelled in PDB 8CMK; also called CIRBP^RSY; RSY-NLS; source: E. coli BL21-(DE3) Star, purified (denaturing lysis, Ni-NTA, TEV cleavage, second Ni-NTA, SEC Superdex 30); not shown: His6, N-terminal, cleaved; protein A, N-terminal, cleaved
With B1, the Kd was 870 nM in assay [3], 870 nM in [4], 610 ± 100 nM in assay [5] and 970 ± 130 nM in assay [6].
